Data taken from patent US12258625B2, “Compositions and methods relating to nucleic acid interaction reporters” (Trustees of Boston University, priority 2022, dated 2025).

System: miR-430 target site
Test: microRNA sensor (Ago2 fused to Adar catalytic subunit)
Assay type: in vivo, zebrafish
Method: In this case, the writer comprises a protein fusion between a protein from the Argonaute family and the catalytic domain of the RNA-editing enzyme ADAR. The recorder must contain the target site of the microRNA of interest, usually the 6 to 8 nucleotides complementary to the miRNA seed region. In the presence of the writer, the recorder and the miRNA of interest, the ternary interaction is recorded as RNA editing in the recorder mRNA. The number of edits will be proportional to the strength of the microRNA-target site interaction. Other variants of this approach include expressing the Ago-Adar writer together with a library of recorders that containing all possible 8-nucleotide sequences as binding site. […]
FIG. 18 depicts a microRNA sensor. miR-430 is a small non-coding regulatory microRNA that recognize their targets mRNAs trough interaction and pairing. miR-430 binds to the effector protein Ago2 and together form a riboprotein complex that recognizes and binds to target mRNAs. miR-430 is the only microRNA expressed during early embryogenesis. […] Only with the tertiary interaction between Ago2, a microRNA, and the target is reconstituted, is editing detected.
Usage of the interactome recorder system to determine microRNA activity in vivo (FIG. 8A). […] In the presence of the writer, the recorder and the miRNA of interest, the ternary interaction is recorded as RNA editing in the recorder mRNA. […]

**Q.** What does the source list for `CC[C@H](C)[C@@H]1NC(=O)CNC(=O)[C@@H]2Cc3c([nH]c4cc(O)ccc34)[S+]([O-])C[C@@H](NC(=O)CNC1=O)C(=O)N[C@@H](CC(N)=O)C(=O)N1C[C@H](O)C[C@H]1C(=O)N[C@@H]([C@@H](C)[C@@H](O)CO)C(=O)N2` (stereo partly drawn) [alpha-Amanitin]?
**A.** editing of the recorder (embryos injected with alpha-Amanitin): not when endogenous miR-430 expression is inhibited; miR-430 expression (injection, early embryogenesis): prevents its expression
